Measurements published in US5486624A (Pacific Corporation, priority 1994, dated 1996).

How the values were obtained:
[1] = biological target: Tyrosinase; experiment: Tyrosinase-inhibiting activity; type: biochemical, mushroom; conditions: for IC50: mushroom tyrosinase, tyrosine, pH 6.8, 37° C., 10 minutes, 475 nm, read-out: IC50 (concentration of test compound which inhibits tyrosinase by 50%); for tyrosinase inhibition activity, fold higher than that of kojic acid: relative to kojic acid, in terms of IC50
Protocol: Tyrosinase, which was extracted from mushroom, was purchased from SIGMA. […] Ethanol and water were used to dilute the test compounds. As a control, 0.9 ml of a 1:1 mixture of ethanol and water was used. […] The test tube was quickly cooled in an ice water bath to stop the reaction, and absorbance was measured at 475 nm. […] IC50, i.e., the concentration of test compound which inhibits tyrosinase by 50% was calculated by serial dilution for each test compound.

[2] = DPPH (diphenylpicrylhydrazyl) radical-scavenging test; conditions: for IC50: DPPH 100 μM in ethanol, 37° C., 30 minutes, 515 nm, read-out: IC50 (concentration of test compound which scavenges the radical DPPH by 50%)
Protocol: Harmful radical-scavenging activities of the compounds of Examples 1 and 2 were compared with those of conventional anti-oxidants using a DPPH (diphenylpicrylhydrazyl) radical-scavenging test as follows:
DPPH was dissolved into ethanol to a concentration of 100 μM. A series of dilutions of compounds of Examples 1 and 2, vitamin C, vitamin E or hydroquinone were prepared. Ethanol and water were used to dilute the test compounds. As a control, a 1:1 mixture of ethanol and water was used. The series of dilutions of each test compound were mixed with 1,900 μl of DPPH solution and the dilution solvent was added to 2.0 ml. The resulting mixture was reacted in an incubator at 37° C. for 30 minutes. Absorbance was measured at 515 nm. The radical-scavenging activities of the compounds of Examples 1 and 2 and conventional anti-oxidants were calculated by the following equation: [formula]
IC50, i.e., the concentration of test compound which scavenge the radical, DPPH by 50% was calculated by the serial dilution method for each test compound.

[3] = test system: human skin; experiment: human body patch test (skin safety); type: in vivo; conditions: for number of positive subjects/the number of total subjects: cream with 0.2 wt. % compound, 20 μl plaster, 30 volunteers; for safety to human skin (in words): overall conclusion
Protocol: In order to examine the safety of the compounds of Examples 1 and 2, a human body patch test was carried out as follows:
The brachium of thirty(30) healthy volunteers (15 females and 15 males) was thoroughly washed with 70% ethanol and applied with a plaster containing 20 μl of a conventional creamy preparation incorporating 0.2 wt. % of one of the compounds of Examples 1 and 2. The plaster was thoroughly bonded to the brachium using an adhesive tape. 48 hours later, the tape and chamber were removed, and the adherent site of the arm was wiped with a gauze to remove any remaining preparation. […] 48 hours later, the site was examined again.
The results are shown in terms of the number of positive subjects/the number of total subjects.

[4] = test system: tyrosinase; conditions: prior art statement; cited from earlier work

| Molecule | IC50 [1] [µM] | tyrosinase inhibition activity, fold higher than that of kojic acid [1] [fold] | IC50 [2] [µM] | number of positive subjects/the number of total subjects ([3]; 48 hours later) | number of positive subjects/the number of total subjects ([3]; 96 hours later) | skin response in patch test (in words) ([3]; after 48 hours) | skin response in patch test (in words) ([3]; after 96 hours) | safety to human skin (in words) [3] | inhibition of tyrosinase (in words) [4] | radical-scavenging activity (in words) [2] |
| --- | --- | --- | --- | --- | --- | --- | --- | --- | --- | --- |
| COc1cc(C=CC(=O)OCc2cc(=O)c(O)co2)ccc1O [Example 2, 2-(4-hydroxy-3-methoxycinnamoyl) oxymethyl-5-hydroxy-4H-pyran-4-one] | 4 | 20 | 70 | 1/30 | 0/30 | weak positive response | disappeared | safe to human skin |  |  |
| O=C1O[C@H]([C@@H](O)CO)C(O)=C1O [Vitamin C, reference compound] |  |  | 29.2 |  |  |  |  |  |  |  |
| tocopherol [Vitamin E, reference compound] |  |  | 34.8 |  |  |  |  |  |  |  |
| O=c1cc(CO)occ1O [Kojic acid] |  |  |  |  |  |  |  |  | strongly inhibits the action of tyrosinase |  |
| Oc1ccc(O)cc1 [Hydroquinone, hydroquinone, reference compound] |  |  | 25.4 |  |  |  |  |  |  |  |
| O=C(C=Cc1ccc(O)c(O)c1)OCc1cc(=O)c(O)co1 [Example 1, 2-(3,4-dihydroxycinnamoyl)oxymethyl-5-hydroxy-4H-pyran-4-one] | 4 | 20 | 12.3 | 1/30 | 0/30 | weak positive response | disappeared | safe to human skin |  | strong activity as a radical scavenger |
